Data on 2 compounds can be found in patent US9326512B2, “Synergistic combination of a flurochloridone compound and zinc pyrithione for dry film protection” (Rohm and Haas Company, priority 2013, dated 2016).

The test system of this experiment is Chlorella sp. ATCC 7516. Put plainly: Algal efficacy testing of dry paint films (modified ASTM 5589, 6-well plates). The class given is cell-based. The following applies: 3 weeks; for Total conc (lowest total biocide concentration in paint passing ≧75% inhibition): pass level ≧75% algal growth inhibition, dry paint film coupon. How it is done: These paints were then diluted with an antimicrobial free acrylic/silicone based paint and mixed to prepare targeted concentrations of antimicrobial compounds for the testing. The total biocides concentrations tested were 125, 250, 500, 1000, 2000 and 5000 ppm. After biocides addition or dilution, the paints were mixed 90 seconds with the horse power shaker (AXEL 75M3372/Agitateur SO-10MI) until uniformity was achieved. Paints containing different antimicrobial compounds at the same levels were mixed together in order to obtain the desired ratio of antimicrobial compounds. After one day, the paints were applied to Schleicher & Schuell filter paper at 280 μm wft and dried for 3 days at room temperature avoiding direct exposure to sunlight. Square discs (1.6 cm×1.6 cm) were cut out from each panel and were used as the substrate for algal efficacy tests. This sample size allowed for an agar border when the sample disc was placed into the well of the test plate.
Algal efficacy was tested according to modified ASTM 5589 which is a standard accelerated test method for determining resistance of various coatings (including paints) to algal defacement. To accommodate for high-throughput screening, this method was scaled down from petri dishes to 6-well plates. Bold Modified Basal Freshwater Nutrient Solution was used as growth medium. A single coated filter paper coupon was placed with a pair of sterile forceps at the center of the agar plug (on top) with the painted surface facing upwards.
Each well that contains a tested coupon was inoculated with 1750 μl of algal suspensions (1×10^6 cfu/ml) making sure that the whole surface (paint film as well as the agar surrounding it) was evenly covered. The plates were incubated at room temp (21° C.-25° C.) with cyclic exposure to light and dark phases, for a period of three weeks.
At the end of the three week incubation period, the samples were scored for percent inhibition regarding color intensity compared to the blank sample.
The Synergy Index calculation was performed as follows.
The SI is calculated based on F. C.
SI value of <1 in the formula indicates a synergism of the blended biocides exists.
The minimal targeted inhibition was set at 75%, meaning a coupon with at least 75% algal growth inhibition was considered as a pass.

Turning to `O=C1C(Cl)C(CCl)CN1c1cccc(C(F)(F)F)c1` (stereo not shown) [Flurochloridone, 3-chloro-4-(chloromethyl)-1-[3-(trifluoromethyl)phenyl]-2-pyrrolidinone], the “Total conc (lowest total biocide concentration in paint passing ≧75% inhibition)” value was 5000 ppm. Moreover, the inhibition at 5000 ppm (504 h, total conc 5000 ppm in paint) is 85%.
Consider `[O-][n+]1ccccc1[S][Zn][S]c1cccc[n+]1[O-]` [ZnPT, bis(2-pyridylthio)zinc 1,1′-dioxide], for which the “Total conc (lowest total biocide concentration in paint passing ≧75% inhibition)” value stood at 500 ppm. For the same compound, the “% inhibition” value (total conc 500 ppm in paint) came to 95%.
